Measurements published in ChEMBL document CHEMBL1135635, “Kappa-opioid receptor model in a phospholipid bilayer: molecular dynamics simulation” (J Med Chem, 2002).

Biological target: Kappa-type opioid receptor (Cavia porcellus, UniProt P41144)
Assay: Inhibition of [3H]U-69593 binding towards Opioid receptor kappa 1 in guinea pig brain homogenates.
Assay type: tissue-based

Sequence of Kappa-type opioid receptor (P41144 whole entry): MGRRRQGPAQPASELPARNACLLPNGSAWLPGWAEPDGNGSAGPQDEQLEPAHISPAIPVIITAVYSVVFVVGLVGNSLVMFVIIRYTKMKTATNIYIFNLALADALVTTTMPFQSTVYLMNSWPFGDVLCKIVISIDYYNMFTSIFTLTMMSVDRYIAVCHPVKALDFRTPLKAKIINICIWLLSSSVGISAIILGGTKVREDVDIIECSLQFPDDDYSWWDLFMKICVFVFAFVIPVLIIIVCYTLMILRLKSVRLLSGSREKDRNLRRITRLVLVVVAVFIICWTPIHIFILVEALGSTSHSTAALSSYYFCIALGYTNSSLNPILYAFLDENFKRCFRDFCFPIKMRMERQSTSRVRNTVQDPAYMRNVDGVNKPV

## CC(=O)OC[C@@]1(c2ccccc2)CC1CN1CC[C@]2(C)c3cc(O)ccc3CC1[C@@H]2C (some centres not stated)
  Ki: 228 nM

## C[C@H]1C2Cc3ccc(O)cc3[C@@]1(C)CCN2CC1C[C@@]1(C(=O)Nc1ccccc1)c1ccccc1 (some centres not stated)
  Ki: 2350 nM
